From PubChem BioAssay AID1963430 (Molecular Pharmacology Branch, DTP, NCI, 2024)
“And” between values parts separate entries of the source, which are not always exact repeats. Equal entries are not always repeated.

Tested on: 521955-158-R2-J5-PDC complex spheroid growth, % test/control
Experiment: Anticancer human tumor 521955-158-R2-J5-PDC patient-derived pancreatic carcinoma cell line growth inhibition [Asc]
Conditions: for viability, T/C: stronger effect = lower value
Method: Multicellular complex tumor spheroid response to apoptosis pathway targeting inhibitors Alrizomadlin, Pelcitoclax, and Dasminapant in combination with a variety of drugs and investigational agents in selected tumor cell lines
The MDM2 inhibitor alrizomadlin, the Bcl-2/Bcl-xL inhibitor pelcitoclax, and the IAPs inhibitor dasminapant were evaluated both individually and in combination with standard of care and investigational anticancer small molecules within a complex spheroid model of solid tumors. . Complex spheroids include a stromal component modeled by human endothelial cells (HUVEC) and fibroblasts modeled by human mesenchymal stem cells (MSCs). The concentration ranges selected for each drug and investigational agent were based upon clinically achievable concentrations if the clinical Cmax of the agent was known.
Compounds. The drugs and investigational agents: alrizomadlin (APG-115; NSC831270), pelcitoclax (APG-1252; NSC835773), dasminapant (APG-1387;NSC834197), TAK-243 (NSC785004), copanlisib (NSC809693), olaparib (NSC753686), talazoparib (NSC767125), cobimetinib (NSC 768068), eltanexor (KPT-8602, NSC 794443), abemaciclib (NSC 768073), sotorasib (NSC818433), adagrasib (NSC 831453), MRTX-1133 (NSC 836407), Iadademestat (ORY1001, NSC 806812), and RMC-4630 (NSC839698), were obtained from the NCI Developmental Therapeutics Program Chemical Repository. The FDA-approved anticancer drug set is available from the Developmental Therapeutics Program at https://dtp.cancer.gov/organization/dscb/obtaining/available plates.htm. […] The stock solutions were prepared in dimethyl sulfoxide (DMSO, Sigma-Aldrich, St. Louis, MO, cat. D2650) at 800-fold the tested concentration and stored at -70 degrees C prior to their use. All drugs and investigational agents were tested over a range starting from a high concentration at or near the clinical Cmax and decreasing in half-log increments. If the clinical Cmax for an agent had not been determined, the highest concentration tested was 10 microM.
The patient-derived cancer (PDC) cell lines include five colon adenocarcinomas: 186277-243-T-J2-PDC, 616215-338-R-J1-PDC, 439559-082-T-J2-PDC, 463943-066-T-J2-PDC, and 519858-162-T-J1-PDC; three pancreatic carcinomas: 323965-272-R-J2-PDC, 521955-158-R6-J3-PDC, and 521955-158-R2-J5-PDC; two uterine sarcomas: 327498-152-R-J2-PDC and 993429-296-R-J1-PDC; two rhabdomyosarcomas: 755483-174-R-J1-PDC and 772245-204-R-J1-PDC; two soft tissue sarcomas: 126254-015-R-J1-PDC and 494315-158-R-J1-PDC; two malignant fibrous histiocytomas: 317291-083-R-J1-PDC and 596521-263-R-J1-PDC; two breast carcinomas: 171881-019-R-J1-PDC and 885512-296-R-J2-PDC; and one ovarian carcinoma: 6556581-035-R-J-PDC were obtained from the NCI PDMR, (https://pdmr.cancer.gov). The established cell lines HSSY-2 synovial sarcoma (RRID:CVCL 8719), SYO-1 synovial sarcoma (RRID:CVCL_7146), MPNST malignant peripheral neural sheath tumor were obtained from the Sloan Kettering Institute. The following established cell lines were purchased from the American Type Culture Collection (ATCC, Manassas, VA), Sor the received from the NCI repository:, PANC-1 pancreatic carcinoma (CRL-1469, RRID:CVCL_0480), OVCAR-5 ovarian carcinoma (RRID:CVCL_1628), OVCAR-8 ovarian carcinoma (RRID:CVCL_1629), , MCF-7 breast carcinoma (CRL-12584, RRID:CVCL_0031), MDA-MB-231 breast carcinoma (CRL-12532, RRID:CVCL_0062), NCI-H1876 small cell lung carcinoma (CRL-5902, RRID:CVCL_1503), NCI-H510A small cell lung carcinoma (HTB-184, RRID:CVCL_1565), NCI-H1417 (CRL-5869, RRID:CVCL_1469), and NCI-H196 small cell lung carcinoma (CRL-5823, RRID:CVCL_1509). Dr. Peter Houghton (Greehey Children's Cancer Research Institute, University of Texas Health Science Center, San Antonio, TX) provided Rh-18 rhabdomyosarcoma (RRID:CVCL_1659). Pooled donor human umbilical vein endothelial cells (HUVEC, Lonza, cat. CC-2519) and human mesenchymal stem cells (hMSC, Lonza, cat. PT-2501) were purchased from Lonza (Walkersville, MD).
Cell Culture. […]
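Also: spheroids exposed to agents for 7 days before readout.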
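For viability, T/C in this document: 100% = DMSO vehicle control viability.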

| IC50 (curve of compound) | SMILES | viability, T/C (compound 0.0316 µM) | viability, T/C (compound 0.1 µM) | viability, T/C (compound 0.316 µM) | viability, T/C (compound 1 µM) | viability, T/C (compound 3.16 µM) | viability, T/C (compound 10 µM) | viability, T/C (compound 0.00316 µM) | viability, T/C (compound 0.01 µM) | also measured |
| --- | --- | --- | --- | --- | --- | --- | --- | --- | --- | --- |
| 5330 nM and 5440 nM and 5660 nM | C=C(F)C(=O)N1CCN(c2nc(OCC3CCCN3C)nc3c2CCN(c2cccc4cccc(Cl)c24)C3)CC1CC#N (stereo unspecified) | 68.6% and 77.1% and 84.2% | 89% and 77.1% and 94.1% | 78.8% and 86.1% and 107% | 105% and 95.4% and 98.1% | 115% and 136% and 120% | 0.29% and 0.32% (2×) | – | – | – |
| > 3000 nM | CCN1C(C(=O)NC23CCC(C(=O)O)(CC2)CC3)C(c2cccc(Cl)c2F)C2(C(=O)Nc3cc(Cl)ccc32)C12CCCCC2 (stereo unspecified) | – | – | – | – | – | – | – | – | viability, T/C (compound 0.00949 µM): 94.9% and 87.6%; IC50 (compound alone, run of 09/27/2022): > 3000 nM |
| > 1000 nM | CNC(C)C(=O)NC1CN(S(=O)(=O)c2cccc(S(=O)(=O)N3CCC4CCC(C(=O)NC(c5ccccc5)c5ccccc5)N4C(=O)C(NC(=O)C(C)NC)C3)c2)CCC2CCC(C(=O)NC(c3ccccc3)c3ccccc3)N2C1=O (stereo unspecified) | – | – | – | – | – | – | 72.5% and 68.6% | – | IC50 (compound alone, run of 10/03/2022): > 1000 nM |
| 10.7 nM and 7.52 nM and 8.61 nM | COc1c(OCCCN2CCOCC2)ccc2c3n(c(=NC(=O)c4cnc(N)nc4)nc12)CCN3 | 40.8% and 38.2% and 34.3% | 30.1% and 31.6% and 29.1% | 18.9% and 20% and 19.9% | 15.3% and 16.1% and 14.2% | – | – | 53.2% and 58.9% and 68.7% | 51.9% and 45.7% and 44% | – |
| > 100 nM | Cn1ncnc1[C@H]1c2n[nH]c(=O)c3cc(F)cc(c23)N[C@@H]1c1ccc(F)cc1 | 81.5% and 76.8% and 63.5% | 57.7% and 68.6% and 70.2% | – | – | – | – | 68.4% and 93.3% and 73.6% | 76.5% and 83.7% and 68.9% | viability, T/C (compound 0.000316 µM): 106% and 99.6% and 79.6%; viability, T/C (compound 0.001 µM): 81.4% and 87.9% and 79.3% |
| 90.2 nM and 184 nM and 30.9 nM | O=C(c1ccc(F)c(F)c1Nc1ccc(I)cc1F)N1CC(O)([C@@H]2CCCCN2)C1 | 61.1% and 71.3% and 49.6% | 47.8% and 51.4% and 31% | 41.1% and 47.1% and 32.3% | 33.1% and 31.4% and 26% | – | – | 73.4% and 81.6% and 64.9% | 73.2% and 72.4% and 79.1% | – |

The remaining lines, values behind:

| SMILES | IC50 (curve of compound) | viability, T/C (compound 0.0316 µM) | viability, T/C (compound 0.1 µM) | viability, T/C (compound 0.316 µM) | viability, T/C (compound 1 µM) | viability, T/C (compound 3.16 µM) | viability, T/C (compound 10 µM) | viability, T/C (compound 0.00316 µM) | viability, T/C (compound 0.01 µM) | also measured |
| --- | --- | --- | --- | --- | --- | --- | --- | --- | --- | --- |
| C#Cc1c(F)ccc2cc(O)cc(-c3ncc4c(N5CC6CCC(C5)N6)nc(OCC56CCCN5CC(F)C6)nc4c3F)c12 (stereo unspecified) | < 31.6 nM and 35.9 nM | 23.2% and 40.7% and 50.5% | 28.2% and 48.4% and 47.1% | 22.3% and 37.1% and 31.9% | 20.6% and 36.3% and 36.4% | 24.6% and 37.5% and 33.1% | 21.9% and 34.4% and 44.3% | – | – | – |
| C=CC(=O)N1CCN(c2nc(=O)n(-c3c(C)ccnc3C(C)C)c3nc(-c4c(O)cccc4F)c(F)cc23)C(C)C1 (stereo unspecified) | > 10000 nM | 87.7% and 88.9% and 88.2% | 72.1% and 90.3% and 87.8% | 76.3% and 92.3% and 90.2% | 108% and 87.7% and 113% | 102% and 121% and 112% | 101% (2×) and 95.5% | – | – | – |
| CCN1CCN(Cc2ccc(Nc3ncc(F)c(-c4cc(F)c5nc(C)n(C(C)C)c5c4)n3)nc2)CC1 | > 1000 nM | 54.5% and 79.2% and 78.5% | 66.6% and 70.4% and 70.9% | 74.6% and 71.2% and 91.2% | 103% and 98.6% and 108% | – | – | 70.6% and 82.3% and 87.5% | 72% and 65.5% and 92.3% | – |
| Cc1nc(N2CCC3(CC2)COC(C)C3N)c(CO)nc1Sc1ccnc(N)c1Cl (stereo unspecified) | – | – | – | – | – | – | – | – | – | viability, T/C (compound 0.00949 µM): 70.6% and 72.1% and 91.2%; viability, T/C (compound 0.03 µM): 68.2% and 54.1% and 87.1%; viability, T/C (compound 0.0949 µM): 59.4% and 48.2% and 62.4%; viability, T/C (compound 0.3 µM): 48.2% (2×) and 65.5%; viability, T/C (compound 0.949 µM): 55.2% and 53.1% and 52.7%; viability, T/C (compound 3 µM): 51.9% and 43.2% and 57.4% |
| NC(=O)C(=Cn1cnc(-c2cc(C(F)(F)F)cc(C(F)(F)F)c2)n1)c1cncnc1 | – | – | – | – | – | – | – | – | – | viability, T/C (compound 0.000949 µM): 68.4% and 84.3% and 83.5%; viability, T/C (compound 0.003 µM): 42.6% and 54.8% and 95.5%; viability, T/C (compound 0.00949 µM): 37.3% and 48.3% and 47.9%; viability, T/C (compound 0.03 µM): 28.6% and 36.7% and 57.8%; viability, T/C (compound 0.0949 µM): 27.8% and 32.6% and 43.7%; viability, T/C (compound 0.3 µM): 23.8% and 48% and 30.4% |
| NC1CCC(NC2CC2c2ccccc2)CC1 (stereo unspecified) | > 100 nM | 58.5% and 56.5% and 90.8% | 60% and 61.9% and 74% | – | – | – | – | 52.8% and 60% and 75.8% | 68.5% and 49.6% and 95% | viability, T/C (compound 0.000316 µM): 63.1% and 63.5% and 88.5%; viability, T/C (compound 0.001 µM): 57% and 64.8% and 83.1% |
| O=C(c1cc(Cc2n[nH]c(=O)c3ccccc23)ccc1F)N1CCN(C(=O)C2CC2)CC1 | > 10000 nM | 80.7% and 80% and 97.9% | 79.6% and 89.4% and 92.2% | 71.8% and 89.7% and 84.1% | 62.2% and 88.6% and 85.9% | 76.3% and 93.4% and 74.3% | 60.8% and 63.9% and 61.5% | – | – | – |
